In patent US10550116B2, “Fused bicyclic heterocycle derivatives as pesticides” (BAYER CROPSCIENCE AKTIENGESELLSCHAFT, priority 2015, dated 2020):
Blank lines part the entries; values can stand above or below the molecule they belong to.

Columns and labels:
[1] = system: Tetranychus urticae; experiment: Tetranychus urticae spray test, OP-resistant; format: in vivo; settings: foliar, 144 h, bean leaf discs, after 6 days, read-out: efficacy
Protocol: (§1) To produce a suitable active ingredient preparation, 1 part by weight of active ingredient is dissolved with the stated parts by weight of solvent and made up with water containing an emulsifier concentration of 1000 ppm until the desired concentration is attained. To produce further test concentrations, the preparation is diluted with emulsifier-containing water. Discs of bean leaves (Phaseolus vulgaris) infested with all stages of the greenhouse red spider mite (Tetranychus urticae) are sprayed with an active ingredient preparation of the desired concentration. After 6 days, the efficacy in % is determined. 100% means that all the spider mites have been killed; 0% means that no spider mites have been killed.

[2] = system: Phaedon cochleariae; experiment: Phaedon cochleariae spray test; format: in vivo; settings: foliar, 168 h, larvae on Chinese cabbage leaf discs, after 7 days, read-out: efficacy
Protocol: as §1, with “Chinese cabbage” for “bean”, “(Brassica pekinensis)” for “(Phaseolus vulgaris) infested with all stages of the greenhouse red spider mite (Tetranychus urticae)”, “concentration and, after drying, populated with larvae of the mustard beetle (Phaedon cochleariae).” for “concentration.”, “7” for “6”, “beetle larvae” for “spider mites”

[3] = system: Spodoptera frugiperda; experiment: Spodoptera frugiperda spray test; format: in vivo; settings: foliar, 168 h, caterpillars on maize leaf discs, after 7 days, read-out: efficacy
Protocol: To produce a suitable active ingredient preparation, 1 part by weight of active ingredient is dissolved with the stated parts by weight of solvent and made up with water containing an emulsifier concentration of 1000 ppm until the desired concentration is attained. To produce further test concentrations, the preparation is diluted with emulsifier-containing water. Leaf discs of maize (Zea mays) are sprayed with an active ingredient preparation of the desired concentration and, after drying, populated with caterpillars of the armyworm (Spodoptera frugiperda). After 7 days, the efficacy in % is determined. 100% means that all the caterpillars have been killed; 0% means that no caterpillar has been killed.

[4] = system: Myzus persicae; experiment: Myzus persicae spray test; format: in vivo; settings: foliar, Chinese cabbage leaf discs, after 5-6 days, read-out: efficacy
Protocol: To produce a suitable active ingredient preparation, 1 part by weight of active ingredient is dissolved with the stated parts by weight of solvent and made up with water containing an emulsifier concentration of 1000 ppm until the desired concentration is attained. To produce further test concentrations, the preparation is diluted with emulsifier-containing water. Discs of Chinese cabbage leaves (Brassica pekinensis) infested by all stages of the green peach aphid (Myzus persicae) are sprayed with an active ingredient preparation of the desired concentration. After 5-6 days, the efficacy in % is determined. 100% means that all the aphids have been killed; 0% means that no aphids have been killed.

[5] = log P by HPLC on reversed-phase column (EEC Directive 79/831 Annex V.A8); format: physicochemical; settings: reversed-phase C18 HPLC column; pH 7.8, aqueous ammonium hydrogencarbonate/acetonitrile; 55° C.; read-out: log P (neutral)
Protocol: The log P values are measured according to EEC Directive 79/831 Annex V.A8 by HPLC (high-performance liquid chromatography) on a reversed-phase column (C 18). Temperature: 55° C. The LC-MS determination in the acidic range is effected at pH 2.7 using 0.1% aqueous formic acid and acetonitrile (contains 0.1% formic acid) as eluents; linear gradient from 10% acetonitrile to 95% acetonitrile. Called log P (HCOOH) in the table. LC-MS determination in the neutral range is effected at pH 7.8 with 0.001 molar aqueous ammonium hydrogencarbonate solution and acetonitrile as eluents; linear gradient from 10% acetonitrile to 95% acetonitrile. Called log P (neutral) in the table. Calibration is carried out using unbranched alkan-2-ones (having 3 to 16 carbon atoms) with known log P values (log P values determined on the basis of the retention times by linear interpolation between two successive alkanones).

[6] = system: Meloidogyne incognita; experiment: Meloidogyne incognita test; format: in vivo; settings: 20 ppm; lettuce; after 14 days
Protocol: To produce a suitable preparation of active ingredient, 1 part by weight of active ingredient is mixed with the stated amount of solvent and the concentrate is diluted with water to the desired concentration. Vessels are filled with sand, active ingredient solution, an egg/larvae suspension of the southern root-knot nematode (Meloidogyne incognita) and lettuce seeds. The lettuce seeds germinate and the plants develop. The galls develop on the roots. After 14 days, the nematicidal efficacy in % is determined by the formation of galls. 100% means that no galls were found; 0% means that the number of galls on the treated plants corresponds to the untreated control.

SMILES: CC[S+]([O-])c1cc2ccccc2nc1-c1nc2cc3c(cc2[nH]1)OC(F)(F)O3 (centres unmarked) [Example I-36]
pest or weed control at 100 g/ha [1]: 90%

SMILES: CCSc1cc2ccccc2nc1-c1nc2cc(C(F)(F)C(F)(F)F)cnc2n1C [Example I-37]
pest or weed control at 100 g/ha [1]: 90%

chromatographic logP [5]: 3.96
SMILES: CCS(=O)(=O)c1cc2ccccc2nc1-c1nc2cc(SC(F)(F)F)ccc2n1C [Example I-21, 3-Ethylsulphonyl-2-[1-methyl-5-(trifluoromethylsulphanyl)benzimidazol-2-yl]quinoline]
pest or weed control at 100 g/ha [2]: 100%
pest or weed control at 100 g/ha [3]: 100%
pest or weed control at 100 g/ha [4]: 100%
pest or weed control at 20 g/ha [1]: 70%

chromatographic logP [5]: 3.27
SMILES: CCS(=O)(=O)c1cc2ccccc2nc1-c1nc2cc(C(F)(F)F)cnc2o1 [Example I-13]
pest or weed control at 100 g/ha [2]: 100%
pest or weed control at 500 g/ha [3]: 83%
pest or weed control at 500 g/ha [4]: 100%

chromatographic logP [5]: 2.58
SMILES: CCS(=O)(=O)c1ccc2nc(-c3nc4cc(C(F)(F)F)ncc4n3C)c(S(=O)(=O)CC)cc2c1 [Example I-6, 3,6-Bis(ethylsulphonyl)-2-[3-methyl-6-(trifluoromethyl)imidazo[4,5-c]pyridin-2-yl]quinoline]
pest or weed control at 500 g/ha [2]: 83%
pest or weed control at 500 g/ha [3]: 100%
pest or weed control at 500 g/ha [4]: 90%

SMILES: CCS(=O)(=O)c1cc2ccccc2nc1-c1nc2cc(C(F)(F)F)nnc2n1C [Example I-22]
pest or weed control at 100 g/ha [3]: 100%
pest or weed control at 100 g/ha [4]: 100%
pest or weed control at 100 g/ha [1]: 90%

chromatographic logP [5]: 3.39
SMILES: CCS(=O)(=O)c1cc2ccccc2nc1-c1nc2cc3c(cc2n1C)OC(F)(F)O3 [Example I-16, 6-(3-Ethylsulphonyl-2-quinolyl)-2,2-difluoro-7-methyl-[1,3]dioxolo[4,5-f]benzimidazole]
pest or weed control at 500 g/ha [2]: 100%
pest or weed control at 500 g/ha [3]: 100%
pest or weed control at 500 g/ha [4]: 90%

SMILES: CCSc1c(-c2nc3cc(C(F)(F)F)ncc3n2C)ncc2ccccc12 [I′-42]
pest or weed control at 500 g/ha [4]: 90%
pest or weed control at 500 g/ha ([1]; 500 g/ha): 70%

chromatographic logP [5]: 4.63
SMILES: CCSc1cc2ccccc2nc1-c1nc2cc(SC(F)(F)F)ccc2n1C [Example I-34, 3-Ethylsulphanyl-2-[1-methyl-5-(trifluoromethylsulphanyl)benzimidazol-2-yl]quinoline]
pest or weed control at 100 g/ha [1]: 100%

SMILES: CCSc1cc2ccccc2nc1-c1nc2cc(C(F)(F)F)ccc2o1 [Example I-32]
nematicidal efficacy (formation of galls) [6]: 100%

chromatographic logP [5]: 2.79
SMILES: CCS(=O)(=O)c1cc2ccccc2nc1-c1nc2cc([S+]([O-])C(F)(F)F)ccc2n1C (centres unmarked) [Example I-23, 3-Ethylsulphonyl-2-[1-methyl-5-(trifluoromethylsulphinyl)benzimidazol-2-yl]quinoline]
pest or weed control at 100 g/ha [2]: 100%
pest or weed control at 100 g/ha [3]: 100%
pest or weed control at 100 g/ha [4]: 100%
pest or weed control at 20 g/ha [1]: 100%

chromatographic logP [5]: 3.62
SMILES: CCS(=O)(=O)c1cc2ccccc2nc1-c1nc2cc(S(=O)(=O)C(F)(F)F)ccc2o1 [Example I-18, 2-(3-Ethylsulphonyl-2-quinolyl)-5-(trifluoromethylsulphonyl)-1,3-benzoxazole]
pest or weed control at 100 g/ha [2]: 100%
pest or weed control at 100 g/ha [3]: 100%
pest or weed control at 100 g/ha [4]: 100%
pest or weed control at 100 g/ha [1]: 70%

chromatographic logP [5]: 3.05
SMILES: CCS(=O)(=O)c1cc2ccccc2nc1-c1nc2cc([S+]([O-])C(F)(F)F)ccc2o1 (centres unmarked) [Example I-19, 2-(3-Ethylsulphonyl-2-quinolyl)-5-(trifluoromethylsulphinyl)-1,3-benzoxazole]
pest or weed control at 100 g/ha [2]: 100%
pest or weed control at 100 g/ha [3]: 100%
pest or weed control at 100 g/ha [4]: 90%

chromatographic logP [5]: 2.63
SMILES: CCS(=O)(=O)c1cc2ccc(Cl)cc2nc1-c1nc2cc(C(F)(F)F)ncc2n1C [Example I-8, 7-Chloro-3-ethylsulphonyl-2-[3-methyl-6-(trifluoromethyl)imidazo[4,5-c]pyridin-2-yl]quinoline]
pest or weed control at 500 g/ha [2]: 100%
pest or weed control at 500 g/ha [3]: 100%
pest or weed control at 500 g/ha [4]: 90%

chromatographic logP [5]: 4.1
SMILES: CCSc1nc2ccccc2nc1-c1nc2cc(C(F)(F)F)ncc2n1C [Example I-4, 2-Ethylsulphanyl-3-[3-methyl-6-(trifluoromethyl)imidazo[4,5-c]pyridin-2-yl]quinoxaline]
pest or weed control at 100 g/ha [1]: 70%

chromatographic logP [5]: 3.23
SMILES: CCSc1cnc2nc(-c3nc4cc(C(F)(F)F)ncc4n3C)c(SCC)cc2c1 [Example I-40, 3,6-Bis(ethylsulphanyl)-2-[3-methyl-6-(trifluoromethyl)-3H-imidazo[4,5-c]pyridin-2-yl]-1,8-naphthyridine]
pest or weed control at 20 g/ha [1]: 70%
nematicidal efficacy (formation of galls) [6]: 90%

chromatographic logP [5]: 5.43
SMILES: CCSc1cc2ccccc2nc1-c1nc2cc(SC(F)(F)F)ccc2o1 [Example I-29, 2-(3-Ethylsulphanyl-2-quinolyl)-5-(trifluoromethylsulphanyl)-1,3-benzoxazole]
pest or weed control at 100 g/ha [1]: 70%

chromatographic logP [5]: 2.63
SMILES: CCS(=O)(=O)c1cc2ccccc2nc1-c1cn2cnc(C(F)(F)F)cc2n1 [Example I-11, 3-(Ethylsulphonyl)-2-[7-(trifluoromethyl)imidazo[1,2-c]pyrimidin-2-yl]quinoline]
pest or weed control at 500 g/ha [2]: 100%
pest or weed control at 500 g/ha [3]: 100%
pest or weed control at 500 g/ha [4]: 70%
